Data from ChEMBL document CHEMBL2010728, “Bicyclic benzofuran and indole-based salicylic acids as protein tyrosine phosphatase inhibitors” (Bioorg Med Chem, 2012).

Assays:
[1] = biological target: Tyrosine-protein phosphatase YopH (Yersinia pseudotuberculosis serotype I (strain IP32953), UniProt P08538); experiment: Inhibition of Yersinia pseudotuberculosis YopH
[2] = biological target: T1, Tyrosine-protein phosphatase non-receptor type 1 (Homo sapiens, UniProt P18031); experiment: Inhibition of PTP1B expressed in Escherichia coli BL21 (DE3) cells using p-nitrophenyl phosphate as substrate after 2 to 3 mins by spectrophotometric analysis
T1 sequence (P18031 whole entry): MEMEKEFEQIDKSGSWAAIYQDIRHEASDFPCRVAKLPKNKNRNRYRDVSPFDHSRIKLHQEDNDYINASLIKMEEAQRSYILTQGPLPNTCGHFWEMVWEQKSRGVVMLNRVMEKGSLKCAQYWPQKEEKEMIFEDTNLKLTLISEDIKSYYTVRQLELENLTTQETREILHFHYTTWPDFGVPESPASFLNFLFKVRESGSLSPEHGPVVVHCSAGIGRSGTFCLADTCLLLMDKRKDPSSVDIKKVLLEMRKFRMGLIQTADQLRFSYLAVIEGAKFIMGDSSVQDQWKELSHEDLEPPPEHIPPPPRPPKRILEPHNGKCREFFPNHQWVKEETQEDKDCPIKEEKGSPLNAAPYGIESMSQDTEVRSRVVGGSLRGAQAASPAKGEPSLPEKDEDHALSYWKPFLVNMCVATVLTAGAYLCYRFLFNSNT

[3] = biological target: T2, Tyrosine-protein phosphatase non-receptor type 1 (Homo sapiens) (UniProt P18031); experiment: Ratio of Ki for salicylic acid to compound Ki for PTP1B
T2 sequence (whole entry): T1 sequence (P18031 whole entry)

[4] = Selectivity ratio of Ki for PTP to Ki for PTP1B
Homo sapiens = organism: Homo sapiens; experiment: Selectivity ratio of Ki for human recombinant TC-PTP to Ki for PTP1B

Sequence of Tyrosine-protein phosphatase YopH (P08538 whole entry): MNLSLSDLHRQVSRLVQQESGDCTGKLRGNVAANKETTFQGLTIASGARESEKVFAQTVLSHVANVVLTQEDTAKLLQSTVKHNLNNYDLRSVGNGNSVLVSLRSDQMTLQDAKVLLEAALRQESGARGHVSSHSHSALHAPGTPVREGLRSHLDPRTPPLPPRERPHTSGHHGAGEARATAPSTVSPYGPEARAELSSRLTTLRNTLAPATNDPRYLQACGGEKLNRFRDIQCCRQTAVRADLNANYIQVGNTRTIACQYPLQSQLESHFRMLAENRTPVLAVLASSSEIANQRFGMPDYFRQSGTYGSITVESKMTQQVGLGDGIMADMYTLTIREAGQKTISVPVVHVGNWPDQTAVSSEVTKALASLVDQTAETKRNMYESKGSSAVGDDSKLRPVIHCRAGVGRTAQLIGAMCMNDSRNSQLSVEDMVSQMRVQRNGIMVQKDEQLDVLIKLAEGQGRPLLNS

Row | SMILES | IC50 [1] [µM] | Ki [2] [µM] | further results
1 | O=C(O)c1cc2cc(O)ccc2cc1O | 60 | – | –
2 | O=C(O)c1cc2cccc(O)c2cc1O | 18 | – | –
3 | O=C(O)c1cc(NCn2c(=S)[nH]c3ccccc32)ccc1O | – | 61 | –
4 | O=C(O)c1cc(NCn2c(S)nc3ccccc32)ccc1O | – | – | Ratio Ki [3]: 320
5 | N[C@@H](Cc1ccc(C(F)(F)P(=O)(O)O)cc1)C(=O)O [PHOSPHONODIFLUOROMETHYL PHENYLALANINE] | – | 0.0024 | Ratio Ki [4]: 1000; Ratio (Homo sapiens): 10
6 | O=C(O)c1ccccc1O [SALICYLIC ACID] | – | 19400 | Ki [1]: 1000 µM
